According to patent US20220289727A1, “ENZYME INHIBITORS” (KALVISTA PHARMACEUTICALS LIMITED, priority 2019, published 2022):

Legend:
Human FXIa = target: T1, Human FXIa (Homo sapiens, UniProt P03951); test: Determination of FXIa inhibitory activity in vitro (fluorogenic substrate Z-Gly-Pro-Arg-AFC); assay type: biochemical; settings: selectivity, 25° C., residual enzyme activity (initial rate)
T1 construct: Human FXIa (Enzyme Research Laboratories) was incubated; purchased Enzyme Research Laboratories

Human Factor XIIa = target: T2, Human Factor XIIa (Homo sapiens, UniProt P00748); test: Determination of FXIIa inhibitory activity in vitro (fluorogenic substrate H-DPro-Phe-Arg-AFC); assay type: biochemical; settings: 25° C., residual enzyme activity (initial rate)
T2 construct: Human Factor XIIa (Enzyme Research Laboratories) was incubated; purchased Enzyme Research Laboratories
T2 sequence (P00748 373-615 limits assumed): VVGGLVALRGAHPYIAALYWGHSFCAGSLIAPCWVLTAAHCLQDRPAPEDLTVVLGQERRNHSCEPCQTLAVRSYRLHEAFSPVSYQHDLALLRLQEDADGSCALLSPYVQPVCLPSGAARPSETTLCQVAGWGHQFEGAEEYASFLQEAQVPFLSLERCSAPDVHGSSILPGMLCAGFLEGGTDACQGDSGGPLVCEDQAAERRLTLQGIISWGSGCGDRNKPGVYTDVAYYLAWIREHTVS
T2 sequence (P00748 20-372 partner limits assumed): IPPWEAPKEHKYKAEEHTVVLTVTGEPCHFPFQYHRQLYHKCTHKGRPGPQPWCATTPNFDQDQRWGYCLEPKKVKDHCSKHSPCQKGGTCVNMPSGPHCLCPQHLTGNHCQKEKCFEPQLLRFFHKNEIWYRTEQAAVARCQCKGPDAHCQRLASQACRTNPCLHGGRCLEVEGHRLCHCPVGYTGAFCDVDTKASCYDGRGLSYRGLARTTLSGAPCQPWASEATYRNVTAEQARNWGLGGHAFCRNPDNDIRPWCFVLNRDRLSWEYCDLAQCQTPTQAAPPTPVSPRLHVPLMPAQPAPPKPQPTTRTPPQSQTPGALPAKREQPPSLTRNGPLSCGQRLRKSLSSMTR

T1 sequence (P03951 388-625 limits assumed): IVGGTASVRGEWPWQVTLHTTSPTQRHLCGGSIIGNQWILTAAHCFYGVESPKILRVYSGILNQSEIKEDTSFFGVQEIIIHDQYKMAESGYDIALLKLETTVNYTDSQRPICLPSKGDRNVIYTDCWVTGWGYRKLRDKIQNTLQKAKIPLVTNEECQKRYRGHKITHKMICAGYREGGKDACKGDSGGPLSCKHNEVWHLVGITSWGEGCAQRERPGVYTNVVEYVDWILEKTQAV
T1 sequence (P03951 19-387 partner limits assumed): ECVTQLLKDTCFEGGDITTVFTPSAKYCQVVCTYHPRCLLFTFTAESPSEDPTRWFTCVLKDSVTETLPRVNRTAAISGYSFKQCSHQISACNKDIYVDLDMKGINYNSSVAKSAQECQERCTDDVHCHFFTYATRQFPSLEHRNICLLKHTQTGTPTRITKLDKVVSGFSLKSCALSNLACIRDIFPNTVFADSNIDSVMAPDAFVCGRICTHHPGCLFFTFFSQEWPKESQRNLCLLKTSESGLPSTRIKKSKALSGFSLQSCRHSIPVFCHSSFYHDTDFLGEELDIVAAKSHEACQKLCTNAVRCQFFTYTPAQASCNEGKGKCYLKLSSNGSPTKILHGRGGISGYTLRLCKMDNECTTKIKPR

SMILES	IC50 (Human FXIa)	IC50 (Human Factor XIIa)
Cc1sc(C(=O)NCc2ccc3c(N)nccc3c2)c(NCC2CCN(C)CC2)c1Cl [Example 26.10, N-((1-Aminoisoquinolin-6-yl)methyl)-4-chloro-5-methyl-3-(((1-methylpiperidin-4-yl)methyl)amino) thiophene-2-carboxamide]	> 40 µM	1 to 3 µM
CC(C)(C)OC(=O)N1CCC(Cn2nc(Cl)cc2C(=O)NCc2ccc3c(N)nccc3c2)CC1 [Example 35.01]	> 40 µM	10 to 40 µM
Nc1nccc2cc(CNC(=O)c3cc(Cl)nn3CC3CCNCC3)ccc12 [Example 35.02]	> 40 µM	3 to 10 µM
CCN1CCC(Cn2nc(Cl)cc2C(=O)NCc2ccc3c(N)nccc3c2)CC1 [Example 35.03]	> 40 µM	3 to 10 µM
CN1CCC(CCn2nc(Cl)cc2C(=O)NCc2ccc3c(N)nccc3c2)CC1 [Example 35.04, N-((1-Aminoisoquinolin-6-yl)methyl)-3-chloro-1-(2-(1-methylpiperidin-4-yl)ethyl)-1H-pyrazole-5-carboxamide]	> 40 µM	< 1 µM
Nc1nccc2cc(CNC(=O)c3cc(C4CC4)nn3CC3CCN(c4ccncc4)CC3)ccc12 [Example 35.05]	31.7 µM	3 to 10 µM
Cc1cc(C(=O)NCc2ccc3c(N)nccc3c2)n(CC2CCN(c3ccncc3)CC2)n1 [Example 35.06]	> 40 µM	10 to 40 µM
CN1CCC(CCn2nccc2C(=O)NCc2ccc3c(N)nccc3c2)CC1 [Example 35.07]	> 40 µM	1 to 3 µM
CCn1c(C(=O)NCc2ccc3c(N)nccc3c2)cc(C)c1CN1CCN(c2ccncc2)CC1 [Example 51.02, N-[(1-Amino-6-isoquinolyl)methyl]-1-ethyl-4-methyl-5-[[4-(4-pyridyl)piperazin-1-yl]methyl]pyrrole-2-carboxamide]	12.4 µM	10 to 40 µM
CCc1cc(C(=O)NCc2ccc3c(N)nccc3c2)sc1CN1CCN(c2ccncc2)CC1 [Example 51.03]	20.5 µM	3 to 10 µM
Cc1cc(C(=O)NCc2ccc3c(N)nccc3c2)nn1CC1CCN(c2ccncc2)CC1 [Example 51.04]	> 40 µM	3 to 10 µM
CN1CCC(CCn2nc(C(=O)NCc3ccc4c(N)nccc4c3)cc2Cl)CC1 [Example 51.05, N-((1-Aminoisoquinolin-6-yl)methyl)-5-chloro-1-(2-(1-methylpiperidin-4-yl)ethyl)-1H-pyrazole-3-carboxamide]	> 40 µM	< 1 µM
COCc1c(C(=O)NCc2cnc3[nH]cc(Cl)c3c2)cnn1Cc1cc2c(cc1F)CCN(C)C2 [Example 69.01, N-((3-Chloro-1H-pyrrolo[2,3-b]pyridin-5-yl)methyl)-1-((6-fluoro-2-methyl-1,2,3,4-tetrahydroisoquinolin-7-yl)methyl)-5-(methoxymethyl)-1H-pyrazole-4-carboxamide]	> 40 µM	1 to 3 µM
CN1CCC(CNc2nccc3c2C(=O)N(Cc2ccc4c(N)nccc4c2)C3)CC1 [Example 82.01, 2-((1-Aminoisoquinolin-6-yl)methyl)-4-(((1-methylpiperidin-4-yl)methyl)amino)-1,2-dihydro-3H-pyrrolo[3,4-c]pyridin-3-one]	> 40 µM	10 to 40 µM
